Each block holds one compound with its values, some of them ahead of it.
Experiments:
[1] = tested on: tRNA modifications; experiment: Measurement of tRNA modification levels by LC-MS/MS; type: cell-based, Human; conditions: K562 cells, 50 μM 5-FU
[2] = tested on: RNA post-transcriptional modification enzymes (PUS1, PUS3, PUS10, TRUB1, TRUB2, DUS3L, TRMT2A, EMG1); experiment: Time-resolved SICFA, 5-FU in K562 cells; type: cell-based, Human; conditions: 50 µM 5-FU, from 4 h, further enhanced with prolonged treatment
[3] = target: T1, TYMS (Homo sapiens, UniProt P04818); experiment: Time-resolved SICFA, 5-FU in K562 cells; conditions: 50 µM 5-FU, 30 min, 10% fixative
T1 sequence (P04818 2-313 limits assumed): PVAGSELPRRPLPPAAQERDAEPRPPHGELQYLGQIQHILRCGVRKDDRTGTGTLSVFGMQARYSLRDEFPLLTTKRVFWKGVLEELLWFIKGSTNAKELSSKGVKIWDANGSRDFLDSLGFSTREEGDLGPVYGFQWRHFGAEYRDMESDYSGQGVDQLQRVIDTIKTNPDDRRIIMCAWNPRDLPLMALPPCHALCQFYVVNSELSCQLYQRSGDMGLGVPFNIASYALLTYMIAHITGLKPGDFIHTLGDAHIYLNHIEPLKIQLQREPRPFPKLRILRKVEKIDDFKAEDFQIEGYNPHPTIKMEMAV

[4] = tested on: C-1-tetrahydrofolate synthase (MTHFD1); experiment: SICFA of MTX-treated living K562 cells; type: cell-based, Human; conditions: 2 µM MTX, 30 min
[5] = tested on: Methionine synthase (MTR); experiment: SICFA of MTX-treated living K562 cells; type: cell-based, Human; conditions: 2 µM MTX, 30 min
[6] = target: HDAC3 (Homo sapiens, UniProt O15379); experiment: SICFA and PISA10 stability shift, Panobinostat; conditions: SICFA versus PISA10
Sequence of HDAC3 (O15379 whole entry): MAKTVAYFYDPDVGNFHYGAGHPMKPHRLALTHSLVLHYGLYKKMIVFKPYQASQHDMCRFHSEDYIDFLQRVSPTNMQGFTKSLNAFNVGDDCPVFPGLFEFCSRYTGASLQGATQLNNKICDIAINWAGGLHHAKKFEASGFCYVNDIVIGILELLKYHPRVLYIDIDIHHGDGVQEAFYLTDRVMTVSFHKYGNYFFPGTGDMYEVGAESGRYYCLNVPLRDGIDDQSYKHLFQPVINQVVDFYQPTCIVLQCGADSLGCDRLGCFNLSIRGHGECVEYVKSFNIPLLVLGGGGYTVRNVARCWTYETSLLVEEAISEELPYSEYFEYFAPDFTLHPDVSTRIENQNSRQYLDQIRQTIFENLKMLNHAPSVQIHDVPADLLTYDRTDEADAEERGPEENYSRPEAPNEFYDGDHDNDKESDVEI
Sequence of HDAC3 (Q9Y618 389-480 partner limits assumed): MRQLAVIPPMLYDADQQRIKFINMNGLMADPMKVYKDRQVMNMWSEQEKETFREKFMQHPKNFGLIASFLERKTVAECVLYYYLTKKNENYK

[7] = target: T2, HDAC8 (Homo sapiens, UniProt Q9BY41); experiment: SICFA and PISA10 stability shift, Panobinostat; conditions: SICFA versus PISA10
T2 sequence (Q9BY41 1-377): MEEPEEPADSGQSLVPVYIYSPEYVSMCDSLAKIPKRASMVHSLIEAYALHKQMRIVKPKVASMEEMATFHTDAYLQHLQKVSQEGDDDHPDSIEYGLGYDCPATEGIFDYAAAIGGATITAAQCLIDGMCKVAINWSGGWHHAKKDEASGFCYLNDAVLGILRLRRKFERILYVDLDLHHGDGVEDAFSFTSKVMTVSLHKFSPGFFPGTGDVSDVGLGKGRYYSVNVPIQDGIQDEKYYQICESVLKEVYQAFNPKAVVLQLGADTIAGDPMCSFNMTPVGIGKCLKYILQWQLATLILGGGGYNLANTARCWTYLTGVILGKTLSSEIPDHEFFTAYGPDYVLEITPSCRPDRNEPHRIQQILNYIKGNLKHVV

[8] = target: HDAC2 (Homo sapiens, UniProt Q92769); conditions: both methods (SICFA and PISA10)
Sequence of HDAC2 (Q92769 whole entry): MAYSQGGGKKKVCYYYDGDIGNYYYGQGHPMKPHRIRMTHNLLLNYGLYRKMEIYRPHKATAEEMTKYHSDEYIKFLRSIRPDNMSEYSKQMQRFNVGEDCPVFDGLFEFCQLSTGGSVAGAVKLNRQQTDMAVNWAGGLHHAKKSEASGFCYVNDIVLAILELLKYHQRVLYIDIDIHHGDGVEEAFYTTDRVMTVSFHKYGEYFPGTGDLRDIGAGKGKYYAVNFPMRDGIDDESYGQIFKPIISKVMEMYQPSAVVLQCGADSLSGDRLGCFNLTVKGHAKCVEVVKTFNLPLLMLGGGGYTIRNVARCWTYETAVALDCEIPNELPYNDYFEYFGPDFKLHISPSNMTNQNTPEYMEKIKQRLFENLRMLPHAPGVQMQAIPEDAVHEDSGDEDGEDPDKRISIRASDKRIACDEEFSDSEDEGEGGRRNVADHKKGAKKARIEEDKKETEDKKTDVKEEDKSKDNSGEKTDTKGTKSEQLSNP

[9] = target: T3, HDAC6 (Homo sapiens, UniProt Q9UBN7); experiment: SICFA and PISA10 stability shift, Panobinostat; conditions: both methods (SICFA and PISA10)
T3 sequence (Q9UBN7 1-1215): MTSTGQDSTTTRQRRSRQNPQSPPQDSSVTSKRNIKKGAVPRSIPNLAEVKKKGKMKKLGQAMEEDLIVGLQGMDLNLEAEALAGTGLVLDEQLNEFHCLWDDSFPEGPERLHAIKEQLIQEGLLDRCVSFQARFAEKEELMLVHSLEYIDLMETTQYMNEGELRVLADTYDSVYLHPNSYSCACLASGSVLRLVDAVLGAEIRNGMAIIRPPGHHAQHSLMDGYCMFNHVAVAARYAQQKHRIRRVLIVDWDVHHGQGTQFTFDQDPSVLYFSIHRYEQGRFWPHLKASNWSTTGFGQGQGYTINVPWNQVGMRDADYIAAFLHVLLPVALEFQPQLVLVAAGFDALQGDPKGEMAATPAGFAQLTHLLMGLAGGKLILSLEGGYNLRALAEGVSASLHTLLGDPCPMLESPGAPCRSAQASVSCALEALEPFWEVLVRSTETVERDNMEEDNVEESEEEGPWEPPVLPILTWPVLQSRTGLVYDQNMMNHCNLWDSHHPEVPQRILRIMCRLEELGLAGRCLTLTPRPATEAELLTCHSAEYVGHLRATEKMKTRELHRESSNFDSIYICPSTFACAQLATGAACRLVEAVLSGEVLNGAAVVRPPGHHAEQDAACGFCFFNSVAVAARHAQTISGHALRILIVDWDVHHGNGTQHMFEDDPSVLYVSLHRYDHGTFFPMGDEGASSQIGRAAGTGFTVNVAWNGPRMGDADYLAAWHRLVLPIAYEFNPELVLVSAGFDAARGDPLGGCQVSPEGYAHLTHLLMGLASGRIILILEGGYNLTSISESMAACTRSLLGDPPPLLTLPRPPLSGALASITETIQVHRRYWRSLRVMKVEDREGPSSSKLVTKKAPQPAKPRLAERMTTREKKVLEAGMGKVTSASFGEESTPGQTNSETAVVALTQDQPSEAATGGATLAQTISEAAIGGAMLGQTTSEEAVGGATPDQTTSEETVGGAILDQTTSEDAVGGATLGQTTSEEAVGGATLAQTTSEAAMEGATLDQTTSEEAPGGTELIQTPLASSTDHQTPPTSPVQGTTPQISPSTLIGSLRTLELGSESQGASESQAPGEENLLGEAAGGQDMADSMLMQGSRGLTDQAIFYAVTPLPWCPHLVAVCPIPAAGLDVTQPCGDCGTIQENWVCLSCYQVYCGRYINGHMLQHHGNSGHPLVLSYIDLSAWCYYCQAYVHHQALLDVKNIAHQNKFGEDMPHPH

[10] = tested on: RB1; experiment: SICFA stability shift, SNS-032
[11] = tested on: LYN; conditions: 1 µM dasatinib, cell lysate, kinobeads ref 26; cited from earlier work
[12] = tested on: RIPK2; conditions: 1 µM dasatinib, cell lysate, kinobeads ref 26; cited from earlier work
[13] = tested on: CDKN1C; experiment: SICFA target identification, dasatinib; type: cell-based, Human; conditions: dasatinib 1 μM, 30 min
[14] = tested on: YES1; conditions: 1 µM dasatinib, cell lysate, kinobeads ref 26; cited from earlier work
[15] = target: T1, TYMS; conditions: raltitrexed 1 µM, 30 min

TYMS stability, log2FC [3]: 2.11
Compound: O=c1[nH]cc(F)c(=O)[nH]1 [5-FU, 5-Fluorouracil]
changes in RNA (tRNA) modifications ([1]; 4 h): no significant changes
tRNA modifications Ψ, ncm5U, hm5C, m5U ([1]; 24 h): significantly downregulated
stability of RNA post-transcriptional modification enzymes [2]: significantly increased

Compound: CN(Cc1cnc2nc(N)nc(N)c2n1)c1ccc(C(=O)N[C@@H](CCC(=O)O)C(=O)O)cc1 [MTX, Methotrexate]
MTHFD1 stability [4]: increased stability
MTR stability, log2FC [5]: −0.38

HDAC3 stability [6]: opposite trends
HDAC8 target identification [7]: uniquely identified by SICFA
HDAC2 stability [8]: consistent stabilization
HDAC6 stability [9]: consistent stabilization
Compound: Cc1[nH]c2ccccc2c1CCNCc1ccc(/C=C/C(=O)NO)cc1 [Panobinostat]

Compound: CC(C)(C)c1cnc(CSc2cnc(NC(=O)C3CCNCC3)s2)o1 [SNS-032]
stability shift of substrate RB1, log2FC [10]: > 0.5

Compound: Cc1nc(Nc2ncc(C(=O)Nc3c(C)cccc3Cl)s2)cc(N2CCN(CCO)CC2)n1 [dasatinib, Dasatinib]
reduction in binding [11]: more than 50%
reduction in binding [12]: more than 50%
stability of LYN's interacting partner CDKN1C [13]: reduced the stability
reduction in binding [14]: more than 50%

soluble TYMS content vs control (western blot) ([15]; Jurkat cells, 10% and 12% fixative): markedly higher
target identification by SICFA LC-MS/MS ([15]; 10% fixative, pool of 5,534 proteins): leading candidate target
Compound: Cc1nc2ccc(CN(C)c3ccc(C(=O)N[C@@H](CCC(=O)O)C(=O)O)s3)cc2c(=O)[nH]1 [raltitrexed, Raltitrexed]

Reference: PMC12647918 (Nature Communications, 2025)
